Experimental data from the supplement of paper PMC13380429.

What was measured:
Settings in all cases: 72 h
Caco-2 [1] = test: cell viability relative to DMSO; higher = less toxic
Calu-3 [2] = test: as above
HepG2 [3] = test: as above
U2OS [4] = test: as above
Caco-2 [5] = test: relative viability EC50 (midpoint between 100% and the lowest measured viability); higher = less toxic
Calu-3 [6] = test: as above
HepG2 [7] = test: as above
U2OS [8] = test: as above
Caco-2 [9] = test: drug sensitivity score (DSS) for viability; higher = more toxic; extreme values may be limits of the assay
Calu-3 [10] = test: as above
HepG2 [11] = test: as above
U2OS [12] = test: as above
Vero E6 [13] = test: cell viability relative to DMSO; higher = less toxic
Vero E6 [14] = test: drug sensitivity score (DSS) for viability; higher = more toxic; extreme values may be limits of the assay

SMILES	cell viability (Caco-2 [1]; 1 nM)	cell viability (Caco-2 [1]; 10 nM)	cell viability (Caco-2 [1]; 100 nM)	cell viability (Caco-2 [1]; 1000 nM)	cell viability (Caco-2 [1]; 10000 nM)	cell viability (Calu-3 [2]; 1 nM)	cell viability (Calu-3 [2]; 10 nM)	cell viability (Calu-3 [2]; 100 nM)	cell viability (Calu-3 [2]; 1000 nM)	cell viability (Calu-3 [2]; 10000 nM)	cell viability (HepG2 [3]; 1 nM)	cell viability (HepG2 [3]; 10 nM)	cell viability (HepG2 [3]; 100 nM)	cell viability (HepG2 [3]; 1000 nM)	cell viability (HepG2 [3]; 10000 nM)	cell viability (U2OS [4]; 1 nM)	cell viability (U2OS [4]; 10 nM)	cell viability (U2OS [4]; 100 nM)	cell viability (U2OS [4]; 1000 nM)	cell viability (U2OS [4]; 10000 nM)	relative viability EC50 (Caco-2 [5])	relative viability EC50 (Calu-3 [6])	relative viability EC50 (HepG2 [7])	relative viability EC50 (U2OS [8])	drug sensitivity score (Caco-2 [9])	drug sensitivity score (Calu-3 [10])	drug sensitivity score (HepG2 [11])	drug sensitivity score (U2OS [12])	cell viability (Vero E6 [13]; 1 nM)	cell viability (Vero E6 [13]; 10 nM)	cell viability (Vero E6 [13]; 100 nM)	cell viability (Vero E6 [13]; 1000 nM)	cell viability (Vero E6 [13]; 10000 nM)	drug sensitivity score (Vero E6 [14])
Cc1c(N)cccc1Cn1ccc(OCCc2cccs2)cc1=O	91.2%	91.6%	91.1%	98.5%	84.3%	95.9%	100%	106%	102%	93.4%	93.3%	104%	94.1%	99.8%	93.2%	99.5%	101%	95.4%	97.1%	95%	> 10 µM	> 10 µM	> 10 µM	> 10 µM	0	0	0	0	–	–	–	–	–	–
Cc1cccc2c1CC[C@H](CN1CCC(c3c(Cl)cccc3Cl)CC1)C[C@@H]2O	93.9%	95.8%	91.3%	78.3%	58.1%	93.8%	106%	89.1%	83.8%	51.2%	104%	102%	93.3%	86.5%	38.5%	102%	106%	95.2%	94.2%	62.1%	–	–	1.65 µM	–	4.7	4.2	5.5	2.8	99.2%	104%	95%	90.2%	70%	2.2
O=c1[nH]c(=O)c2ccccc2o1 [carsalam]	99.5%	95.4%	92.5%	104%	98.8%	89.6%	93.5%	104%	106%	108%	96%	100%	103%	98.1%	101%	98.9%	102%	97.3%	102%	103%	> 10 µM	> 10 µM	> 10 µM	> 10 µM	0	0	0	0	–	–	–	–	–	–
c1cc(Cc2cnc[nH]2)ccn1 [immethridine]	99.7%	103%	95%	97.1%	90.3%	107%	96.8%	94.6%	94.8%	103%	93.8%	104%	99.1%	93.4%	97%	94.1%	99.9%	97.4%	102%	98.4%	> 10 µM	> 10 µM	> 10 µM	> 10 µM	0	0	0	0	–	–	–	–	–	–
COC(=O)C1=CO[C@@H](O[C@@H]2O[C@H](CO)[C@@H](O)[C@H](O)[C@H]2O)[C@@H]2C(CO)=CC[C@H]12 [geniposide]	99.6%	94.5%	93.5%	95.9%	93.9%	84.8%	98.2%	91.2%	96.4%	98.4%	104%	95.5%	106%	114%	92.4%	93.9%	99.4%	94.9%	99.5%	99%	> 10 µM	> 10 µM	> 10 µM	> 10 µM	0	0	0	0	–	–	–	–	–	–
N=C(N)c1ccc(OCCCCCOc2ccc(C(=N)N)cc2)cc1 [pentamidine]	90.1%	93.4%	92.2%	93.9%	71.7%	94.7%	104%	104%	96%	94.5%	104%	97.5%	105%	22.5%	18.3%	105%	105%	101%	96.3%	71.5%	–	> 10 µM	0.39 µM	–	1.9	0	13.9	1.8	107%	65.4%	92.6%	79.8%	82.9%	3.4
CC[N+](CC)(CC)CCOc1cccc(OCC[N+](CC)(CC)CC)c1OCC[N+](CC)(CC)CC [gallamine-triethiodide]	104%	96.2%	91.5%	98.2%	101%	104%	108%	104%	90.8%	95%	94.7%	102%	94%	93.1%	95.6%	103%	101%	102%	99.8%	100%	> 10 µM	> 10 µM	> 10 µM	> 10 µM	0	0	0	0	–	–	–	–	–	–
CCCCCCN(CCCCCC)C(=O)Cc1c(-c2ccc(Cl)cc2)[nH]c2ccc(Cl)cc12 [FGIN-1-43]	101%	102%	101%	93.5%	86.8%	91.5%	106%	99.4%	101%	103%	104%	94.9%	106%	98.2%	97%	98.4%	103%	103%	104%	95.2%	> 10 µM	> 10 µM	> 10 µM	> 10 µM	0.5	0	0	0	–	–	–	–	–	–
Cc1nc(=O)c2cc(CN(C)c3ccc(C(=O)N[C@@H](CCC(=O)O)C(=O)O)s3)ccc2[nH]1 [raltitrexed]	91.2%	99%	64.2%	59.9%	50.1%	103%	104%	87.4%	92.6%	85.8%	111%	104%	70.7%	60.7%	65.1%	99.1%	105%	100%	97.4%	95.8%	–	> 10 µM	–	> 10 µM	13.4	2	10.5	0	98.8%	101%	66.1%	62.9%	66.6%	10.7
CO[C@H]1C[C@@H]2CC[C@@H](C)[C@@](O)(O2)C(=O)C(=O)N2CCCC[C@H]2C(=O)O[C@H]([C@H](C)C[C@@H]2CC[C@H](n3cnnn3)[C@H](OC)C2)CC(=O)[C@H](C)/C=C(\C)[C@@H](O)[C@@H](OC)C(=O)[C@H](C)C[C@H](C)/C=C/C=C/C=C/1C [zotarolimus]	82.5%	63.1%	60%	52.9%	60.3%	68.2%	59.4%	54.5%	46.3%	52.2%	84.4%	74%	63.1%	62.9%	61.1%	93.4%	61.8%	60.2%	56.9%	52.5%	–	< 0.001 µM	–	–	19.5	22.1	15.4	19.9	92.6%	85.2%	69.6%	61%	58.7%	11.9
CN[C@@H]1[C@H](O[C@H]2[C@H](O[C@H]3[C@H](O)[C@@H](O)[C@H](NC(=N)N)[C@@H](O)[C@@H]3NC(=N)N)O[C@@H](C)[C@]2(O)CO)O[C@@H](CO)[C@H](O)[C@H]1O [dihydrostreptomycin]	99.2%	94.3%	97.6%	93.8%	104%	97.8%	97.1%	106%	96.9%	94.8%	109%	100%	101%	105%	98.5%	102%	105%	97.3%	107%	97.3%	> 10 µM	> 10 µM	> 10 µM	> 10 µM	0	0	0	0	–	–	–	–	–	–
C[C@]1(Cn2ccnn2)[C@H](C(=O)O)N2C(=O)C[C@H]2S1(=O)=O [tazobactam]	81.7%	96.4%	91.3%	94.6%	85.4%	93.2%	98.7%	91.6%	94.3%	105%	107%	102%	97.4%	113%	107%	95.4%	102%	98.9%	100%	95.6%	> 10 µM	> 10 µM	> 10 µM	> 10 µM	0	0	0	0	–	–	–	–	–	–
O=C(Nc1nc2cccc(-c3ccc(CN4CCS(=O)(=O)CC4)cc3)n2n1)C1CC1 [filgotinib]	111%	104%	93.2%	95.7%	96.5%	95.7%	105%	98.2%	87.5%	97.4%	100%	99.1%	96.4%	102%	53.4%	–	–	–	–	–	> 10 µM	> 10 µM	–	–	0	0	2.3	–	–	–	–	–	–	–
CNC(=O)c1c(I)c(C(=O)NCC(=O)Nc2c(I)c(C(=O)O)c(I)c(C(=O)NCCO)c2I)c(I)c(N(C)C(C)=O)c1I [ioxaglic-acid]	104%	92.4%	106%	100%	103%	109%	101%	97.2%	102%	95.5%	95.9%	98.4%	94%	98.2%	96.9%	106%	96.9%	102%	101%	104%	> 10 µM	> 10 µM	> 10 µM	> 10 µM	0	0	0	0	–	–	–	–	–	–
